For 23 compounds, EC50 results are on record in patent publication US11725000B2, “Apoptosis inhibitors” (National Institute of Biological Sciences, Beijing, priority 2017, dated 2023).

The structures appear in SMILES notation. pEC50: −log10 of the molar value.

The test relates to U2OS_Bim cells. Briefly: Apoptosis inhibition assay (Bim-induced apoptosis, cell viability by ATP level). The class given is cell-based. The following applies: U2OS_Bim cells; means of duplicates; numbering of Tables 4a/4b; read-out: EC50. The gist of the method:
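Apoptosis was triggered by doxycycline (0.1 μg/mL) induction of Bim, one hour after compound addition to U2OS_Bim cells. Survival was measured after 24 h from cellular ATP (CellTiter-Glo), relative to DMSO, with zVAD at 20 μM as rescue control. Data are duplicate means, some estimated from preliminary results.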

On to `CS(=O)(=O)c1nc(-c2ccc(=O)n(Cc3ccc(-c4ccccc4)cc3)c2)cc(C(F)(F)F)n1` [Compound 131, 1-([1,1′-biphenyl]-4-ylmethyl)-5-(2-(methylsulfonyl)-6-(trifluoromethyl)pyrimidin-4-yl)pyridin-2 (1H)-one], for which the pEC50 (usually −log10 of the EC50, conventionally taken in molar units) is 6.00 to 9.00. Turning to `CS(=O)(=O)c1nc(-c2ccc(=O)n(Cc3ccc(-n4cccn4)cc3)c2)cc(C(F)(F)F)n1` [Compound 132, 1-(4-(1H-pyrazol-1-yl)benzyl)-5-(2-(methylsulfonyl)-6-(trifluoromethyl)pyrimidin-4-yl)pyridin-2 (1H)-one], the pEC50 is 6.00 to 9.00.

As for `CS(=O)(=O)c1nc(-c2ccc(=O)n(Cc3cccc4ccccc34)c2)cc(C(F)(F)F)n1` [Compound 133, 5-(2-(methylsulfonyl)-6-(trifluoromethyl)pyrimidin-4-yl)-1-(naphthalen-1-ylmethyl)pyridin-2 (1H)-one], the pEC50 is 5.00 to 6.00. As for `CS(=O)(=O)c1nc(-c2ccc(=O)n(Cc3ccc4ccccc4c3)c2)cc(C(F)(F)F)n1` [Compound 134, 5-(2-(methylsulfonyl)-6-(trifluoromethyl)pyrimidin-4-yl)-1-(naphthalen-2-ylmethyl)pyridin-2 (1H)-one], the pEC50 was 5.00 to 6.00. Under `COc1cc(Cn2cc(-c3cc(C(F)(F)F)nc(S(C)(=O)=O)n3)ccc2=O)ccn1` [Compound 135, 1-((2-methoxypyridin-4-yl)methyl)-5-(2-(methylsulfonyl)-6-(trifluoromethyl)pyrimidin-4-yl)pyridin-2 (1H)-one] stands 6.00 to 9.00; under `CS(=O)(=O)c1nc(-c2ccc(=O)n(Cc3ccc4c(c3)OCO4)c2)cc(C(F)(F)F)n1` [Compound 136, 1-(benzo[d][1,3]dioxol-5-ylmethyl)-5-(2-(methylsulfonyl)-6-(trifluoromethyl)pyrimidin-4-yl)pyridin-2 (1H)-one], 6.00 to 9.00. Then `CS(=O)(=O)c1nc(-c2ccc(=O)n(Cc3ccc4c(c3Br)OCO4)c2)cc(C(F)(F)F)n1` [Compound 137, 1-((4-bromobenzo[d][1,3]dioxol-5-yl)methyl)-5-(2-(methylsulfonyl)-6-(trifluoromethyl)pyrimidin-4-yl)pyridin-2 (1H)-one], with 6.00 to 9.00; and `C[S+]([O-])c1nc(-c2ccc(=O)n(Cc3ccc4c(c3Br)OCO4)c2)cc(C(F)(F)F)n1` (centres unmarked) [Compound 138, 1-((4-bromobenzo[d][1,3]dioxol-5-yl)methyl)-5-(2-(methylsulfinyl)-6-(trifluoromethyl)pyrimidin-4-yl)pyridin-2 (1H)-one], with 6.00 to 9.00. With `COc1ccc(Cn2cc(-c3cc(-n4cccn4)nc(S(C)(=O)=O)n3)ccc2=O)cc1OC` [Compound 139, 1-(3,4-dimethoxybenzyl)-5-(2-(methylsulfonyl)-6-(1H-pyrazol-1-yl)pyrimidin-4-yl)pyridin-2 (1H)-one], the pEC50 was 5.00 to 6.00. Under `COc1ccc(Cn2cc(-c3cc(C(F)(F)F)nc(S(=O)(=O)Cc4ccc(-c5ccccc5)cc4)n3)ccc2=O)cc1OC` [Compound 140, 5-(2-(([1,1′-biphenyl]-4-ylmethyl)sulfonyl)-6-(trifluoromethyl)pyrimidin-4-yl)-1-(3,4-dimethoxybenzyl)pyridin-2 (1H)-one] stands 6.00 to 9.00; under `C#CCCS(=O)(=O)c1nc(-c2ccc(=O)n(Cc3ccc(OC)c(OC)c3)c2)cc(C(F)(F)F)n1` [Compound 141, 5-(2-(but-3-yn-1-ylsulfonyl)-6-(trifluoromethyl)pyrimidin-4-yl)-1-(3,4-dimethoxybenzyl)pyridin-2 (1H)-one], 6.00 to 9.00. Regarding `C=CS(=O)(=O)c1nc(-c2ccc(=O)n(Cc3ccc(OC)c(OC)c3)c2)cc(C(F)(F)F)n1` [Compound 142, 1-(3,4-dimethoxybenzyl)-5-(6-(trifluoromethyl)-2-(vinylsulfonyl)pyrimidin-4-yl)pyridin-2 (1H)-one], the pEC50 was 5.00 to 6.00. Under `COCCS(=O)(=O)c1nc(-c2ccc(=O)n(Cc3ccc(OC)c(OC)c3)c2)cc(C(F)(F)F)n1` [Compound 143] stands 6.00 to 9.00; under `COCCCS(=O)(=O)c1nc(-c2ccc(=O)n(Cc3ccc(OC)c(OC)c3)c2)cc(C(F)(F)F)n1` [Compound 144, 1-(3,4-dimethoxybenzyl)-5-(2-((3-methoxypropyl)sulfonyl)-6-(trifluoromethyl)pyrimidin-4-yl)pyridin-2 (1H)-one], 6.00 to 9.00; under `COCCOCCS(=O)(=O)c1nc(-c2ccc(=O)n(Cc3ccc(OC)c(OC)c3)c2)cc(C(F)(F)F)n1` [Compound 145], 6.00 to 9.00. On to `CCCCCCCS(=O)(=O)c1nc(-c2ccc(=O)n(Cc3ccc(OC)c(OC)c3)c2)cc(C(F)(F)F)n1` [Compound 146, 1-(3,4-dimethoxybenzyl)-5-(2-(heptylsulfonyl)-6-(trifluoromethyl)pyrimidin-4-yl)pyridin-2 (1H)-one], for which the pEC50 was 6.00 to 9.00.

On to `CCCCCS(=O)(=O)c1nc(-c2ccc(=O)n(Cc3ccc(OC)c(OC)c3)c2)cc(C(F)(F)F)n1` [Compound 147, 1-(3,4-dimethoxybenzyl)-5-(2-(pentylsulfonyl)-6-(trifluoromethyl)pyrimidin-4-yl)pyridin-2 (1H)-one], for which the pEC50 was 6.00 to 9.00. Under `COc1ccc(Cn2cc(-c3cc(C(F)(F)F)nc(S(=O)(=O)CCC(=O)N(C)C)n3)ccc2=O)cc1OC` [Compound 149, 3-((4-(1-(3,4-dimethoxybenzyl)-6-oxo-1,6-dihydropyridin-3-yl)-6-(trifluoromethyl)pyrimidin-2-yl)sulfonyl)-N,N-dimethylpropanamide] stands 6.00 to 9.00; under `COc1ccc(Cn2cc(-c3cc(C(F)(F)F)nc(S(=O)(=O)CCC(=O)N4CCCC4)n3)ccc2=O)cc1OC` [Compound 150, 1-(3,4-dimethoxybenzyl)-5-(2-((3-oxo-3-(pyrrolidin-1-yl)propyl)sulfonyl)-6-(trifluoromethyl)pyrimidin-4-yl)pyridin-2 (1H)-one], 6.00 to 9.00. With `COc1ccc(Cn2cc(-c3cc(C(F)(F)F)nc(S(=O)(=O)CCCC(=O)N(C)C)n3)ccc2=O)cc1OC` [Compound 151, 4-((4-(1-(3,4-dimethoxybenzyl)-6-oxo-1,6-dihydropyridin-3-yl)-6-(trifluoromethyl)pyrimidin-2-yl)sulfonyl)-N,N-dimethylbutanamide], the pEC50 was 6.00 to 9.00. Then `COc1ccc(Cn2cc(-c3cc(C(F)(F)F)nc(S(=O)(=O)CCCC(=O)N4CCCC4)n3)ccc2=O)cc1OC` [Compound 152, 1-(3,4-dimethoxybenzyl)-5-(2-((4-oxo-4-(pyrrolidin-1-yl)butyl)sulfonyl)-6-(trifluoromethyl)pyrimidin-4-yl)pyridin-2 (1H)-one], with 6.00 to 9.00; and `COc1ccc(Cn2cc(-c3cc(C(F)(F)F)nc(S(=O)(=O)CCC(=O)N4CCCCC4)n3)ccc2=O)cc1OC` [Compound 153, 1-(3,4-dimethoxybenzyl)-5-(2-((3-oxo-3-(piperidin-1-yl)propyl)sulfonyl)-6-(trifluoromethyl)pyrimidin-4-yl)pyridin-2 (1H)-one], with 6.00 to 9.00; and `COc1cc(Cl)c(Cn2cc(-c3cc(C(F)(F)F)nc(S(=O)(=O)CCC(=O)N4CCCCC4)n3)ccc2=O)cc1OC` [Compound 154, 1-(2-chloro-4,5-dimethoxybenzyl)-5-(2-((3-oxo-3-(piperidin-1-yl)propyl)sulfonyl)-6-(trifluoromethyl)pyrimidin-4-yl)pyridin-2 (1H)-one], with 6.00 to 9.00.
